Source: patent US10112926B2 (priority 2014, dated 2018)
pIC50: −log10 of the molar value. Structures can show the parent of a compound that is named as a salt.

Legend:
PI 4-kinase beta = PI 4-kinase beta (Homo sapiens (Human), UniProt Q9UBF8); conditions: read-out: Assay D PI4Kβ IC50
Vps34 = Vps34 (Homo sapiens (Human), UniProt Q8NEB9); conditions: read-out: Assay C VPS34 IC50
Chain of Vps34 (Q8NEB9 whole entry): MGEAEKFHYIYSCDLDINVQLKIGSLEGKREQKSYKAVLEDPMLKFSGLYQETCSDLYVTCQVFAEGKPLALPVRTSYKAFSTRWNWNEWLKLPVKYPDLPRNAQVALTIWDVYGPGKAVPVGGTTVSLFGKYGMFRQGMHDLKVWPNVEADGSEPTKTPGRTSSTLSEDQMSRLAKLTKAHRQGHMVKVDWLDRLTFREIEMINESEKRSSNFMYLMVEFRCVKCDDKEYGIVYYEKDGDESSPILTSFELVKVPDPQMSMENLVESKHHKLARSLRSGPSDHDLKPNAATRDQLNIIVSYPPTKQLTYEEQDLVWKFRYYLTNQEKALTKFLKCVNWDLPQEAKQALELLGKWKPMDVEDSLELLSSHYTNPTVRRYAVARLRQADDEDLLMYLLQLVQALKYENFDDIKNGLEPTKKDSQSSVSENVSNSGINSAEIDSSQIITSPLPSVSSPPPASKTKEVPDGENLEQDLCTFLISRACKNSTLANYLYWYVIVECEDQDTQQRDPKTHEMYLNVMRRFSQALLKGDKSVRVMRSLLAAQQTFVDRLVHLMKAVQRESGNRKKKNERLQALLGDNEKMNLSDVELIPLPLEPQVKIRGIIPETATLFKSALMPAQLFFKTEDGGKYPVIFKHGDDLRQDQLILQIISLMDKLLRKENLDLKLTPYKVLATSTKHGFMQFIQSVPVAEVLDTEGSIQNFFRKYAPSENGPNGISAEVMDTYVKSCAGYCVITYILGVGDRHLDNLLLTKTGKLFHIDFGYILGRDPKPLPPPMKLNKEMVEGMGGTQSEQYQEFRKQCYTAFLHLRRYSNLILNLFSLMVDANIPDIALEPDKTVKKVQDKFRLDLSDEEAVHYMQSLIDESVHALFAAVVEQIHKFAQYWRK

Chain of PI 4-kinase beta (Q9UBF8 whole entry): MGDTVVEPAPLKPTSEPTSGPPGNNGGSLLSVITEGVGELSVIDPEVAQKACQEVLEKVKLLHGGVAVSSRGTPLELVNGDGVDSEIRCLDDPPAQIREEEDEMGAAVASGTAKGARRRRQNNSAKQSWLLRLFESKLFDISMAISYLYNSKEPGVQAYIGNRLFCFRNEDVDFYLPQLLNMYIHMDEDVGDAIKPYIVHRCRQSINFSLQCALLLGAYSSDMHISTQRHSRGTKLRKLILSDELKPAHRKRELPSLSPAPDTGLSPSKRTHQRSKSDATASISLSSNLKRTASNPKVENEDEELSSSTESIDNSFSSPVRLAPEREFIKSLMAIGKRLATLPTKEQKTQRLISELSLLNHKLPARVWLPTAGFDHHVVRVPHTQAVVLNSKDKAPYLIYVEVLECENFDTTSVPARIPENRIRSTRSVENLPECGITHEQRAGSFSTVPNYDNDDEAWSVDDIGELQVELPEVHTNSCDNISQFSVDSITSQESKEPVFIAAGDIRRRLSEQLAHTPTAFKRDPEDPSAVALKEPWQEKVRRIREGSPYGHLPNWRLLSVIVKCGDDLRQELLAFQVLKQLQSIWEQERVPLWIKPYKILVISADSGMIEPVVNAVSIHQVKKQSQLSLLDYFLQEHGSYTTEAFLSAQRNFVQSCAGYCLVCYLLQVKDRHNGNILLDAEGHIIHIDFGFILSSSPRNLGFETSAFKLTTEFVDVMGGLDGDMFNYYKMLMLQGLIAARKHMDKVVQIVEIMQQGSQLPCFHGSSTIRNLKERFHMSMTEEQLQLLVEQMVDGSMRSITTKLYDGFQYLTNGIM

Compound | pIC50 (PI 4-kinase beta) | pIC50 (Vps34)
Cc1nnc(-c2cc(-c3cc(S(=O)(=O)NCC(C)(C)O)ccc3C)cnc2N)s1 [Example 102, 3-(6-amino-5-(5-methyl-1,3,4-thiadiazol-2-yl)pyridin-3-yl)-N-(2-hydroxy-2-methylpropyl)-4-methylbenzenesulfonamide] | 5.07 | < 5.00
Cc1cc(-c2cc(-c3cc(S(=O)(=O)NCC4COC4)ccc3C)cnc2N)on1 [Example 25, 3-(6-Amino-5-(3-methylisoxazol-5-yl)pyridin-3-yl)-4-methyl-N-(oxetan-3-ylmethyl)benzenesulfonamide] | 5.89 | < 5.00
Cc1cc(-c2cc(-c3cc(S(=O)(=O)N[C@H]4CCC[C@H](O)C4)ccc3C)cnc2N)on1 [Example 19.16, 3-(6-amino-5-(3-methylisoxazol-5-yl)pyridin-3-yl)-N-((1S,3S)-3-hydroxycyclohexyl)-4-methylbenzenesulfon-amide trifluoroacetic acid salt] | 5.82 | < 5.00
Cc1cc(-c2cc(-c3cc(S(=O)(=O)N[C@@H](C)C4CC4)ccc3C)cnc2N)on1 [Example 19.13, (S)-3-(6-amino-5-(3-methylisoxazol-5-yl)pyridin-3-yl)-N-(1-cyclopropylethyl)-4-methylbenzenesulfon-amide trifluoroacetic acid salt] | 5.80 | < 5.00
Cc1ccc(S(=O)(=O)NCCC(C)(C)O)cc1-c1cnc(N)c(-c2cnn(CC(F)(F)F)c2)c1 [Example 3, 3-(6-Amino-5-(1-(2,2,2-trifluoroethyl)-1H-pyrazol-4-yl)pyridin-3-yl)-N-(3-hydroxy-3-methylbutyl)-4-methylbenzenesulfonamide] | 5.97 | < 5.04
Cc1ncc(-c2cc(-c3cc(S(N)(=O)=O)ccc3C)cnc2N)s1 [Example 74, 3-(6-Amino-5-(2-methylthiazol-5-yl)pyridin-3-yl)-4-methylbenzenesulfonamide] | 5.30 | 5.66
Cc1noc(-c2cc(-c3cc(S(=O)(=O)NCC4(CO)COC4)ccc3C)cnc2N)n1 [Example 52, 3-(6-Amino-5-(3-methyl-1,2,4-oxadiazol-5-yl)pyridin-3-yl)-N-((3-(hydroxymethyl)oxetan-3-yl)methyl)-4-methylbenzenesulfonamide] | < 5.00 | < 5.00
Cc1ccc(S(=O)(=O)NCCC(C)(C)O)cc1-c1cnc(N)c(-c2nc(CC(F)(F)F)no2)c1 [Example 79, 3-(6-Amino-5-(3-(2,2,2-trifluoroethyl)-1,2,4-oxadiazol-5-yl)pyridin-3-yl)-N-(3-hydroxy-3-methylbutyl)-4-methylbenzenesulfonamide] | 5.55 | < 5.00
Cc1ccc(S(=O)(=O)NCC(C)(C)O)cc1-c1cnc(N)c(-c2ncco2)c1 [Example 94b, 3-(6-amino-5-(oxazol-2-yl)pyridin-3-yl)-N-(2-hydroxy-2-methylpropyl)-4-methylbenzenesulfonamide] | 5.89 | < 5.00
Cc1nnc(-c2cc(-c3cc(S(=O)(=O)NCCC(C)(C)O)ccc3C)cnc2N)s1 [Example 105, 3-(6-amino-5-(5-methyl-1,3,4-thiadiazol-2-yl)pyridin-3-yl)-N-(3-hydroxy-3-methylbutyl)-4-methylbenzenesulfonamide] | 5.54 | < 5.00
Cc1ncc(-c2cc(-c3cc(S(=O)(=O)NCC4(CO)CCOCC4)ccc3C)cnc2N)o1 [Example 104.13, 3-(6-amino-5-(2-methyloxazol-5-yl)pyridin-3-yl)-N-((4-(hydroxymethyl)tetra-hydro-2H-pyran-4-yl)methyl)-4-methylbenzenesulfon-amide] | 5.47 | < 5.00
Cc1noc(-c2cc(-c3cc(S(=O)(=O)NCC4(O)CC4)ccc3C)cnc2N)n1 [Example 37.19, 3-(6-Amino-5-(3-methyl-1,2,4-oxadiazol-5-yl)pyridin-3-yl)-N-((1-hydroxycyclopropyl)methyl)-4-methylbenzenesulfonamide] | 5.07 | < 5.00
Cc1noc(-c2cc(-c3cc(S(=O)(=O)NCCC4(O)CCCCC4)ccc3C)cnc2N)n1 [Example 37.31, 3-(6-Amino-5-(3-methyl-1,2,4-oxadiazol-5-yl)pyridin-3-yl)-N-(2-(1-hydroxycyclohexyl)ethyl)-4-methylbenzenesulfonamide] | 5.21 | < 5.00
Cc1ncc(-c2cc(-c3cc(S(=O)(=O)NCC4(O)COC4)ccc3C)cnc2N)o1 [Example 104.7, 3-(6-amino-5-(2-methyloxazol-5-yl)pyridin-3-yl)-N-((3-hydroxyoxetan-3-yl)methyl)-4-methylbenzenesulfon-amide] | 5.74 | 5.49
Cc1ccc(S(=O)(=O)NCC(C)(C)O)cc1-c1cnc(N)c(-c2cc(C3CC3)no2)c1 [Example 35.3, 3-(6-Amino-5-(3-cyclopropylisoxazol-5-yl)pyridin-3-yl)-N-(2-hydroxy-2-methylpropyl)-4-methylbenzenesulfonamide hydrochloride] | 5.89 | < 5.00
Cc1cc(-c2cc(-c3cc(S(=O)(=O)NC[C@H]4C[C@@H](O)C4)ccc3C)cnc2N)on1 [Example 84, cis-3-(6-Amino-5-(3-methylisoxazol-5-yl)pyridin-3-yl)-N-(((1s,3s)-3-hydroxycyclobutyl)methyl)-4-methylbenzenesulfonamide] | 5.58 | < 5.00
Cc1noc(-c2cc(-c3cc(S(=O)(=O)NC4CC(F)(F)C4)ccc3C)cnc2N)n1 [Example 37.17, 3-(6-Amino-5-(3-methyl-1,2,4-oxadiazol-5-yl)pyridin-3-yl)-N-(3,3-difluorocyclobutyl)-4-methylbenzenesulfonamide] | 5.07 | < 5.00
Cc1cc(-c2cc(-c3cc(S(=O)(=O)NC4CCOC4=O)ccc3C)cnc2N)on1 (stereo not drawn) [Example 19.2, 3-(6-amino-5-(3-methylisoxazol-5-yl)pyridin-3-yl)-4-methyl-N-(2-oxotetrahydrofuran-3-yl)benzene sulfonamide trifluoroacetic acid salt] | 5.43 | < 5.00
Cc1cc(-c2cc(-c3cc(S(=O)(=O)N4CC(CO)C4)ccc3C)cnc2N)on1 [Example 37.12, (1-((3-(6-Amino-5-(3-methylisoxazol-5-yl)pyridin-3-yl)-4-methylphenyl)sulfonyl)azetidin-3-yl)methanol] | 5.47 | < 5.00
Cc1cc(-c2cc(-c3cc(S(=O)(=O)NC[C@@H]4CCOC4)ccc3C)cnc2N)on1 [Example 38, (S)-3-(6-Amino-5-(3-methylisoxazol-5-yl)pyridin-3-yl)-4-methyl-N-((tetrahydrofuran-3-yl)methyl)benzenesulfonamide] | 5.51 | < 5.00
Cc1noc(-c2cc(-c3cc(S(=O)(=O)NO[C@H]4C[C@H](O)C4)ccc3C)cnc2N)n1 [Example 55, trans-3-(6-Amino-5-(3-methyl-1,2,4-oxadiazol-5-yl)pyridin-3-yl)-N-(3-hydroxycyclobutoxy)-4-methylbenzenesulfonamide] | 5.33 | < 5.00
Cc1ncc(-c2cc(-c3cc(S(=O)(=O)NCC4(C)COC4)ccc3C)cnc2N)o1 [Example 69, 3-(6-Amino-5-(2-methyloxazol-5-yl)pyridin-3-yl)-4-methyl-N-((3-methyloxetan-3-yl)methyl)benzenesulfonamide] | 5.62 | 5.36
Cc1noc(-c2cc(-c3cc(S(=O)(=O)NC[C@@H]4CCOC4)ccc3C)cnc2N)n1 [Example 87, (S)-3-(6-Amino-5-(3-methyl-1,2,4-oxadiazol-5-yl)pyridin-3-yl)-4-methyl-N-((tetrahydrofuran-3-yl)methyl)benzenesulfonamide] | 5.21 | < 5.00
Cc1ncc(-c2cc(-c3cc(S(=O)(=O)NCC4COC4)ccc3C)cnc2N)o1 [Example 104.3, 3-(6-amino-5-(2-methyloxazol-5-yl)pyridin-3-yl)-4-methyl-N-(oxetan-3-ylmethyl)benzenesulfon-amide] | 5.34 | 5.33
Cc1ccc(S(=O)(=O)N[C@H]2CC[C@H](O)CC2)cc1-c1cnc(N)c(-c2cc(C(C)(C)C)no2)c1 [Example 35.2, trans-3-(6-Amino-5-(3-(tert-butyl)isoxazol-5-yl)pyridin-3-yl)-N-(−4-hydroxycyclohexyl)-4-methylbenzenesulfonamide hydrochloride] | 6.20 | < 5.00
Cc1noc(-c2cc(-c3cc(S(=O)(=O)NCC(C)(C)O)ccc3C)cnc2N)n1 [Example 10, 3-(6-Amino-5-(3-methyl-1,2,4-oxadiazol-5-yl)pyridin-3-yl)-N-(2-hydroxy-2-methylpropyl)-4-methylbenzenesulfonamide, hydrochloride salt] | < 5.01 | < 5.01
Cc1ncc(-c2cc(-c3cc(S(N)(=O)=O)ccc3C)cnc2N)o1 [Example 33, 3-(6-Amino-5-(2-methyloxazol-5-yl)pyridin-3-yl)-4-methylbenzenesulfonamide] | 5.35 | 5.41
Cc1cc(-c2cc(-c3cc(S(=O)(=O)NCC4(CO)CCC4)ccc3C)cnc2N)on1 [Example 37.6, 3-(6-Amino-5-(3-methylisoxazol-5-yl)pyridin-3-yl)-N-((1-(hydroxymethyl)cyclobutyl)methyl)-4-methylbenzenesulfonamide] | 5.66 | < 5.00
Cc1noc(-c2cc(-c3cc(S(=O)(=O)NCC4(CO)CCOCC4)ccc3C)cnc2N)n1 [Example 37.10, 3-(6-Amino-5-(3-methyl-1,2,4-oxadiazol-5-yl)pyridin-3-yl)-N-((4-(hydroxymethyl)tetrahydro-2H-pyran-4-yl)methyl)-4-methylbenzenesulfonamide] | < 5.00 | < 5.00
Cc1nc(-c2cc(-c3cc(S(=O)(=O)NCCC(C)(C)O)ccc3C)cnc2N)cs1 [Example 93, 3-(6-Amino-5-(2-methylthiazol-4-yl)pyridin-3-yl)-N-(3-hydroxy-3-methylbutyl)-4-methylbenzenesulfonamide] | 5.12 | < 5.00
